Among the data in ChEMBL document CHEMBL1121688 (J Med Chem, 1981) are IC50 values, retold here.

In test [1] the target is Muscarinic acetylcholine receptor. Nature of the test: Concentration required (in vitro) to displace 50% specific binding of [3H]clozapine to Muscarinic acetylcholine receptor in rat brain. The format is tissue-based.
Test [2] is described as follows: Concentration required (in vitro) to displace 50% specific binding of [3H]clozapine to non-muscarinic sites in rat brain in presence of 1 uM atropine. The format is tissue-based.
Test [3] deals with Dopamine receptor. Nature of the test: Relative affinity for dopamine receptor by displacement of [3H]spiroperidol (2.2 nM) from (in vitro) dopamine binding sites in rat caudate nuclei.
Test [4] can be described thus: Concentration required (in vitro) to displace 50% specific binding of [3H]clozapine to sites in rat brain.

Structures are written as SMILES.

`CC1CCN(C2=Cc3ccccc3Cc3ccc(Cl)cc32)CC1`: the IC50 in test [1] and in test [2] was above 10000 nM each time.

As for `CC1CCN(C2=Cc3cc(Cl)ccc3Cc3ccccc32)CC1`, the IC50 in test [3], in test [1] and in test [2] was above 10000 nM each time.

For `CN1CCN(C2=Cc3cc(Cl)ccc3Cc3ccccc32)CC1`, the IC50 in test [3] was determined as 342 nM; in test [1] it was 670 nM; in test [2] it was 13 nM.

Consider `CN1CCN(C2=Nc3cc(Cl)ccc3Nc3ccccc32)CC1` [CLOZAPINE], for which the IC50 in test [2] was determined as 13 nM.

For the compound `CN1CCN(C2=Nc3cc(Cl)ccc3N(C)c3ccccc32)CC1`, the IC50 in test [3] turned out to be 32400 nM; in test [1], 12 nM; in test [2] it was 88 nM.

Consider `CN1CCC(C2=Cc3cc(Cl)ccc3Cc3ccccc32)CC1`, for which the figures for the IC50 in test [3], in test [1] and in test [2] were 678 nM, 622 nM and 7 nM, respectively.

`CN1CCN(C2=Nc3ccccc3Nc3ccc(Cl)cc32)CC1` [ISOCLOZAPINE]: the IC50 amounted to 758 nM in test [3] and 17 nM in test [4].

Regarding `CN1CCN(C2=Cc3ccccc3Cc3ccccc32)CC1`, the IC50 in test [3] came to 808 nM; in test [1] it was 610 nM; in test [2], 3.7 nM.

For `CN1CCN(C2=Cc3ccccc3Cc3ccc(Cl)cc32)CC1`, the IC50 in test [3] worked out at 39 nM; in test [1], 290 nM; in test [2], 10 nM.

For `CN1CCN(C2=Nc3cc(Cl)ccc3Oc3ccccc32)CC1` [ISOLOXAPINE], the IC50 worked out at 2480 nM in test [3], 49 nM in test [1] and 38 nM in test [2].
